The source of these data is a melting point compilation (Tetko et al.; mined from patent text by program, amines drawn as free bases though some values may be those of a salt).

The structures appear in SMILES notation.

In general, melting point refers to the temperature, or range, at which the solid turns liquid. In the case of `N#Cc1nn(-c2c(Cl)cc(C(F)(F)F)cc2Cl)cc1-c1ccoc1Br`, the melting point came out at 111 °C.

For `CCCCCC(CC(=O)Nc1cc(CCC(=O)NC)ccc1C(C)(C)C)c1c(OC)cccc1OC` (stereo not drawn), the melting point is 111 to 112 °C.

In the case of `COC(=O)C1Cc2c(n(C)c3ccccc23)CN1C(=S)SCc1cccs1` (stereo not drawn), the melting point lay in the range of 139 to 140 °C.

In the case of `N#Cc1cnc2c(sc3c(N)cccc32)c1Nc1cccc(Br)c1`, the melting point was 256 to 258 °C.

The compound `O=[N+]([O-])c1ccccc1OC1OC(COP(=O)(O)O)C(O)C(O)C1O` (stereo not drawn) came in with a melting point of 181 to 183 °C.

On to `O=C(O)c1cc(=O)c2cccc(/C=C/c3ccc(OCCCCc4ccccc4)cc3F)c2o1`, for which the melting point lay within 73.4 to 73.5 °C.

In turn, `CC(=O)c1cccc(SCCCc2cn(S(=O)(=O)N(C)C)cn2)c1` registered a melting point of 122 to 124 °C.

In turn, `N#Cc1ccc(N2CC=C(N3CCCC3)CC2)cc1` registered a melting point of 126 to 129 °C.

As for `CC(C)c1nc(CN(C)C(=O)NC(C(=O)NC(Cc2ccccc2)CC(O)C(Cc2ccccc2)NC(=O)OCc2ccno2)C(C)C)cs1` (stereo not drawn), the melting point lay within 60 to 62 °C.

`COC(=O)c1ccc(OC)c(O)c1` yielded a melting point of 62 to 63 °C.

`O=C(O)Cc1c(Oc2ccccc2)cccc1Oc1ccccc1` returned a melting point of 32 to 38 °C.

In turn, `C=CCOC(=O)NC(C)(C)c1ccc(-c2nc(Nc3ccc(CCn4ccnc4)cc3)ncc2Cl)cc1` came in with a melting point of 72 to 78 °C.

Turning to `NN1CCC(Cc2ccc(Cl)cc2)CC1`, the melting point was 49 to 51 °C.

Turning to `Cc1nc(C)c(CN2CCN(C)CC2)c(-c2ccccc2OCc2ccc(Cl)cc2)n1`, the melting point was in the range of 110 to 111 °C.

`CCCc1cc(=O)oc2cc(OC(=O)C(C)(C)C)c3c(c12)OC(C)(C)C=C3` yielded a melting point of 65 to 68 °C.

As to `CC(=O)NC12CC3(C)CC(C)(CC(CO)(C3)C1)C2`, the melting point was 152 to 153 °C.

The compound `Brc1cccc2c1Sc1c(Br)cccc1S2` displayed a melting point of 176 to 178 °C.

Compound `Fc1c(F)c(C(F)(F)F)c(F)c(F)c1Nc1nc(Cl)nc(Cl)c1Cl` displayed a melting point of 152 to 153 °C.

In the case of `Cc1ccc(C(=O)NC(Cc2ccc(C(F)(F)F)cc2)C(=O)c2ccc(F)cc2)c2ccccc12` (stereo not drawn), the melting point was in the range of 149 to 150 °C.

For the compound `OC1CSC(Oc2cc(-c3cccnc3F)ccc2Cl)C(O)C1O` (stereo not drawn), the melting point is 165 °C.

Consider `CC1(C)Cc2c(c(N3CCCC3)nc3sc4c(NCc5cccnc5)ncnc4c23)CO1`, for which the melting point lay within 289 to 290 °C.

The compound `COc1ccc(Oc2cc(Cl)ccc2[N+](=O)[O-])c(C(=O)O)c1` displayed a melting point of 232 to 234 °C.

`COc1cc(C)c(C(=O)c2c(C)cccc2O)c(OC)c1OC`: the melting point was 82 to 84 °C.

On to `CC[C@H](NC(=O)OC(C)(C)C)c1nc2c(C(F)(F)F)cccc2c(O)c1C(=O)Nc1nccs1`, for which the melting point was in the range of 260 to 262 °C.

The compound `CC(C)(C)OC(=O)NCc1ccccc1-c1ccccc1C(=O)O` gave a melting point of 136 °C.

The compound `CC(=O)CC1=C(C#N)C(c2cccc3nonc23)c2c[nH]nc2N1` (stereo not drawn) displayed a melting point of 200 °C.

`CCOC(=O)NNC(=O)Cl` showed a melting point of 77 to 80 °C.

`CN(C)CCN(C)c1ccc(Nc2cc(Br)cn(C)c2=O)nc1`: the melting point is 161 to 163 °C.

`NCCCP(=O)(O)C1SCCS1` came in with a melting point of 272 to 274 °C.

`Cc1nc2cccnc2n(-c2ccc(Cl)cc2)c1=O`: the melting point was in the range of 245 to 246 °C.

Consider `CCCCSC(=S)N1C(CO)Cc2c([nH]c3ccccc23)C1C` (stereo not drawn), for which the melting point lay in the range of 110 to 113 °C.

`CS(=O)(=O)OC[C@@H]1CN(c2ccc(O)cc2)C(=O)O1` registered a melting point of 282 to 284 °C.

`COc1ccc(Cn2c(=O)n([C@H]3CC[C@H](O)CC3)c3ccc(C(N)=O)cc32)cc1Cl` registered a melting point of 292 °C.

Consider `C=CCC(C#N)(C#N)Cc1c(F)c(F)c(F)c(F)c1F`, for which the melting point stood at 78.2 °C.

In the case of `COc1cc(OC)nc(-c2c(C)[nH]c3ccc(Cl)cc23)n1`, the melting point was 179 to 181 °C.

On to `C=CCc1c(O)ccc2c1CCC(=O)N2`, for which the melting point fell in the range of 236 to 239 °C.

`CCCCc1c(C(=O)OCC)cc(O)c2c(OC)cccc12`: the melting point lay within 80 to 82 °C.

In the case of `c1cc(-c2csc(Cc3ncc[nH]3)n2)ccn1`, the melting point is 178 to 180 °C.

On to `COc1ccc(CNC(=O)c2cc([N+](=O)[O-])ccc2NC2CC=CCC2)cc1F` (stereo not drawn), for which the melting point came to 140 °C.

Regarding `CC(C)n1nc(-c2sc(NC(=O)c3ccccc3)nc2-c2ccc(F)cc2)ccc1=O`, the melting point lay in the range of 228 to 230 °C.

`C=CCc1cc(O)c(CC=C)c(C=O)c1O` had a melting point of 102 °C.

As for `FC(F)(F)Oc1ccc(-c2ccc3c(ccn3Cc3ccccc3)c2)cc1`, the melting point is 62 to 63 °C.

In turn, `CC1(C)OC(c2ccc(S(N)(=O)=O)c(Cl)c2)=C(c2ccccc2)C1=O` registered a melting point of 193 to 194 °C.

`COC(=O)Nc1cc(Oc2ccc3c(C(=O)Nc4ccc(CN5CCN(C)CC5)c(C(F)(F)F)c4)nccc3c2)ncn1`: the melting point is 203 to 205 °C.

The compound `CC(=O)C1=C(O)C(=C(C)Nc2cccc(NS(C)(=O)=O)c2)C(=O)OC1=O` had a melting point of 196 °C.

Consider `OC(CCCc1ccc(Cl)cc1)(Cc1ccc(Cl)cc1)c1ccc(OCc2ccc3ccccc3n2)cc1` (stereo not drawn), for which the melting point lay in the range of 123 to 124 °C.

Compound `CCCCOCCOc1ccc(-c2ccc3c(c2)C=C(C(=O)Nc2ccc(C(O)c4ccccn4)c(OCC(F)(F)F)c2)CCN3C(=O)C(F)(F)F)cc1` (stereo not drawn) returned a melting point of 178 to 181 °C.

Consider `CCN(CC)c1ccc(C2(N(c3ccc(N(C)C)cc3)c3ccc(N(C)C)cc3)OC(=O)c3ccccc32)c(C)c1` (stereo not drawn), for which the melting point was in the range of 67 to 83 °C.

`Cc1cnn(-c2cc(F)c(C#N)cc2F)c(=O)c1` yielded a melting point of 223 °C.

For `Cc1c(OCc2ccc(F)cc2F)ccn(Cc2cccc(F)c2)c1=O`, the melting point fell in the range of 127 to 129 °C.

Consider `CCOC(=O)C1=NN=C(c2ccc(OC)c(OC)c2)c2cc(OC)c(OC)cc2C1CC` (stereo not drawn), for which the melting point fell in the range of 178 to 180 °C.

As to `CCOC(=O)C1(C(=O)OCC)CCC=C2C1CCC1=Cc3c(cnn3-c3ccc(F)cc3)CC12C` (stereo not drawn), the melting point was 133 to 135 °C.

Consider `COc1ccc(S(=O)(=O)NCC2CCN(C[C@H]3COc4ccc(Cl)cc4O3)CC2)cc1`, for which the melting point was in the range of 130 to 131 °C.

In turn, `N#CCSc1nc(Cl)cc(-c2ccccc2)n1` had a melting point of 136 to 141 °C.

Compound `O=C1NC(=O)c2cc(CCCCCN3CCC(c4nc(-c5ccncc5)c(-c5ccc(Cl)c(Cl)c5)[nH]4)CC3)ccc21` gave a melting point of 129 to 134 °C.

For `CCCNC(=O)C(=O)CCC(=O)O`, the melting point lay in the range of 79 to 81 °C.

As to `NS(=O)(=O)Oc1ccc2c(c1)S(=O)(=O)N=C2C1CCCCC1`, the melting point came to 170 °C.

With `CN1CCc2c(O)ccc(Cl)c2CC1`, the melting point was in the range of 178 to 180 °C.

As for `CCOC(=O)C(F)Sc1ccc(O)cc1` (stereo not drawn), the melting point worked out at 72 °C.

On to `COc1cc(OC)nc(NC(=O)N=NS(=O)(=O)C2SCCCN2C)n1` (stereo not drawn), for which the melting point is 188 to 190 °C.

Turning to `CCN1CC(OCC2CCC2)(C(F)(F)F)c2cc(F)ccc2NC1=O` (stereo not drawn), the melting point is 137 to 138 °C.

For `CN(c1cc(OCCCS(C)(=O)=O)cc2cc(C3=NCC(CN4CCN(S(C)(=O)=O)CC4)S3)[nH]c12)S(=O)(=O)c1ccccn1` (stereo not drawn), the melting point is 151 to 153 °C.

In the case of `CCCc1ccc(-n2nc(Cl)cc2-c2ccc(S(C)(=O)=O)cc2)cc1N`, the melting point lay within 152 to 154 °C.

`CC[C@H](NC(=O)OCC1c2ccccc2-c2ccccc21)[C@@H](O)C(=O)O` yielded a melting point of 160 to 162 °C.

In turn, `C[C@H](NC(=O)c1cc(F)cc(NS(=O)(=O)CC2CN(C(c3ccc(Cl)cc3)c3ccc(Cl)cc3)C2)c1)C(N)=O` gave a melting point of 219 to 221 °C.

`CSCCC(NC(=O)OCc1ccccc1)C(N)=O` (racemic) displayed a melting point of 120 to 122 °C.

In turn, `O=C(O)Cc1ccc2nc(-c3ccccc3)ccc2c1` registered a melting point of 161 to 162 °C.

For the compound `CC(=O)C1CCC2C3CCC4=CC(=O)CCC4(CO)C3CCC12C` (stereo not drawn), the melting point lay in the range of 165 to 168 °C.

Regarding `CC1=C(C#N)C(c2cccc([N+](=O)[O-])c2)n2ccnc2N1` (stereo not drawn), the melting point is 278 to 280 °C.

In the case of `N#CC(c1ccccc1)(c1ccccc1)[C@H]1CCCN(CCc2ccc(Cl)cc2)C1`, the melting point lay within 129 to 131 °C.

Consider `Cc1nc(-c2cccc([N+](=O)[O-])c2)sc1C(=O)O`, for which the melting point was in the range of 235 to 236 °C.

Regarding `O=C(OC1CCCCCCC1)n1c(-c2cscn2)nc2ccccc21`, the melting point is 85 to 88 °C.

Turning to `CCOP(=O)(Cc1nsc2ccc(-n3c(=O)cc(C(F)(F)F)n(C)c3=O)cc12)OCC`, the melting point lay in the range of 142 to 144 °C.

Consider `CCOP(=O)(OCC)SCc1ccc(-c2nc(S)c3cc(Br)ccc3n2)cc1`, for which the melting point lay within 196 to 199 °C.

Consider `CCCCN(Cc1ccc(-c2ccccc2-c2nnn[nH]2)cc1)c1nc(C)cc(C)n1`, for which the melting point was in the range of 148 to 150 °C.

In the case of `O=C(/C=C/c1cccc(Cl)c1)N1CCCC1`, the melting point lay in the range of 137 to 138 °C.

For `CCCCCCCNc1nc(C)c(O)c(=O)[nH]1`, the melting point fell in the range of 233 to 235 °C.

The compound `OC1(c2cnccn2)CN2CCC1C2` (stereo not drawn) showed a melting point of 180 to 183 °C.

Turning to `CCN1C(=O)C(C(N)=O)(c2ccc(Cl)c(Cl)c2)OS1=O` (stereo not drawn), the melting point lay within 127 to 128 °C.

Compound `C=CCN1CCc2c(sc(N)c2C(=O)c2ccc(Br)cc2)C1` showed a melting point of 116 to 118 °C.

Consider `CCCc1c(O)c(C(C)=O)c(C)c2c1OC(C)(C)CC2C` (stereo not drawn), for which the melting point is 74 to 75 °C.

As for `COc1cccc(CNC(=O)c2nc3cccc(OCc4ccc(-c5nnn[nH]5)cc4)c3c(=O)[nH]2)c1`, the melting point is 227 to 229 °C.

Take `Nc1cccc(-c2ccc(CCN3CCN(C(=O)Oc4ccccc4)CC3)cc2)n1`: the melting point fell in the range of 102 to 104 °C.

On to `O=C(Nc1ccccc1)c1ccc(F)c(Nc2ccccc2)c1`, for which the melting point is 132 to 133 °C.

Compound `Cn1c2ccccc2c2nc3c(CO)cccc3nc21` displayed a melting point of 191 to 194 °C.

On to `COc1ccc2c3c1OC1C(=O)C=CC4C(C2)N(C)CCC314` (stereo not drawn), for which the melting point lay within 177 to 180 °C.

Compound `NC(=O)c1cc(F)c(NC2CCNCC2)cc1F` displayed a melting point of 188 to 190 °C.

The compound `COc1cc2c(cc1OCc1ccccc1)CCN(Cc1cccc(C)c1)C2` came in with a melting point of 81 to 82 °C.
